Each structure is given as a SMILES string. Several values for one entry are separate records, joined by “and”; a condition that tells them apart may be missing. Identical values can stand only once. Entries after “also recorded” stand apart in the source; their conditions may differ.

The source of these data is patent US5830885A, “Antiproliferative vitamin D3 hybrids” (The Johns Hopkins University, priority 1996, dated 1998).

One data set concerns cell proliferation. The data set can be described thus: Anti-proliferative activity (summary statements). The conditions noted are these: compared with calcitriol or in general words. The data set is classed as cell-based.
For the next data set, the target named is T1, calf thymus VDR (Bos taurus, UniProt Q28037).
T1 construct: from the calf thymus VDR; from tissue; host or cells: calf thymus
T1 sequence (Q28037 1-426): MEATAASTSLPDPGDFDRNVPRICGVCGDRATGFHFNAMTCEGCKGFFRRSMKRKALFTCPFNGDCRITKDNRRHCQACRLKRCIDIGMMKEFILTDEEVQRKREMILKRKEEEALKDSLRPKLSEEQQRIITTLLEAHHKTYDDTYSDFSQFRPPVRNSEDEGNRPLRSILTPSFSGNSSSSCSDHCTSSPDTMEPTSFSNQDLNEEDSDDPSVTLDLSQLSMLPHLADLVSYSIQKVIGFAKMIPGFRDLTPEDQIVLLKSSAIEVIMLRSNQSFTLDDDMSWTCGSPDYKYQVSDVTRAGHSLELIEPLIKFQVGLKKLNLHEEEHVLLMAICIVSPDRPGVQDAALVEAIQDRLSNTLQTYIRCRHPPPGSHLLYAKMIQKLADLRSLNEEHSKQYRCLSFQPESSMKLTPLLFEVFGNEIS
In words: VDR binding assay, displacement of [^3 H]-1,25(OH)2 D3 from VDR. The conditions noted are these: for binding to the 1,25(OH)2-vitamin D3 receptor (VDR), % of calcitriol's binding / VDR binding affinity relative to that of calcitriol: relative to calcitriol; for Amount Bound (amount that results in 50% displacement of [^3 H]-1,25(OH)2 D3 from VDR): Table 6, calf thymus VDR; for times less strongly bound to VDR than 1,25(OH)2 D3: relative to 1,25(OH)2 D3. As for the experimental part:
The VDR binding assay was performed according to the procedure of Reinhardt, T. A., Horst, R. L., Orf, J. W., Hollis, B. W., J. Clin. Endocrin. Metab., 58: 91-98 (1984), the entire contents of which are hereby incorporated herein by reference.

The nature of data set [1]: Solubility in organic solvents. It is filed as physicochemical. The conditions noted are these: methylene chloride, chloroform, methanol; for YA/YB also EtOAc, acetone.
Data set [2] can be described thus: Crystallization behaviour. It is filed as physicochemical.
The subject of data set [3] is Human lymphoma cells U 937. The note with it: relative to calcitriol = 1; cited from earlier work.
Data set [4] relates to Human lymphoma cells U 937. The note with it: relative to calcitriol = 1; cited from earlier work. The source holds these as a separate data set.
A further data set has as its system Lewis rats. The note with it: relative to calcitriol = 1; cited from earlier work.
Data set [5] has as its system murine keratinocyte cells (cell line PE). The data set can be described thus: Growth inhibition of PE keratinocytes (MTT assay). The data set is classed as cell-based. The conditions noted are these: FIG. 7. As for the experimental part: The compounds were tested for growth inhibition of murine keratinocyte cells (cell line PE) and for the inhibition of TPA-induced ornithine decarboxylase (ODC) activity.
The PE cell line culture medium used in the tests consisted of Eagle's minimal essential medium without calcium chloride supplemented with 8% chelexed fetal calf serum and 1% antibiotic-antimycotic and the addition of CaCl2 to 0.05 mM Ca^++.
PE cells were seeded at a density of 5,000 cells/well in 50 μl medium into 96-well microtiter plates. […] The plates were fed once at 48 hours, with the re addition of the vitamin D3 analogues at this time. At 24 hour intervals following the initial treatment of the cells with compounds, 0.1 mg ([…] of a 2 mg/ml solution) of MTT was added to the plates. After 4 hours, the MTT was removed and DMSO added to dissolve the blue formazan dye. Using a microtiter plate reader, the A505 was then determined and cell number calculated from blank-subtracted absorbance values.
A general note: Tetrazolium assays rely on reduction of a dye to a coloured formazan, in cell work by metabolically active cells.

The next data set concerns HL-60 cells. In words: Growth inhibition of HL-60 cells. The data set is classed as cell-based. The note with it: FIG. 8; YA and YB 10^-7 M, others 10^-6 M. The text has this:
YA and YB were at concentrations of 10^-7 M; the other compounds were at concentrations of 10^-6 M.

For another data set, the system named is keratinocyte. The data set can be described thus: Dose-response effects on keratinocyte proliferation (FIGS. 3, 4, 9, 10). The data set is classed as cell-based. The note with it: cell numbers at 0 and 96 hours. On the procedure: N0 represents the number of cells at zero hours and N1 represents the number of cells at 96 hours.
For data set [6] the following is noted: in vivo; cited from earlier work.
The test system of a further data set is calcium channels. In words: Calcium channel opening assay. The conditions noted are these: Bay K 1 μM, in the experiments of each compound's line. It is filed as cell-based.

As to `C=C1/C(=C\C=C2/CCC[C@]3(C)[C@@H]([C@H](C)CCCC(C)(C)O)CC[C@@H]23)C[C@@H](O)C[C@@H]1CO` [(-)-2, 1α-hydroxymethyl-25-hydroxyvitamin D3], the anti-proliferative activity result in the data set on cell proliferation was “did not change the anti- proliferative or cell growth inhibitory activity”. The “binding to the 1,25(OH)2-vitamin D3 receptor (VDR), % of calcitriol's binding” value on calf thymus VDR was at most 2%. Also, the “solubility in organic solvents” value in data set [1] is listed as “unexpectedly poor solubility; also recorded: only sparingly soluble”. Further, the ease of crystallization result in data set [2] is listed as “easily crystallized”.

Regarding `C=C1/C(=C\C=C2/CCC[C@]3(C)[C@@H]([C@H](C)/C=C/[C@@H](O)C4CC4)CC[C@@H]23)C[C@@H](O)C[C@@H]1O` [Mc-903 (Calcipotriol)], the “Relative Potency, Inhibition of Proliferation” value in data set [3] is reported as 1.3. Moreover, the “Relative Potency, Induction of Differentiation” value in data set [4] is recorded as 1. Further, the “Relative Potency, Calcemic Effects” value in the data set with Lewis rats is on record as below 0.01.

With `C=C1/C(=C\C=C2/CCC[C@]3(C)[C@@H]([C@@H](C)COCCCC(C)(C)O)CC[C@@H]23)C[C@@H](O)C[C@@H]1CO` [JK 276-1], on calf thymus VDR, the “Amount Bound (amount that results in 50% displacement of [^3 H]-1,25(OH)2 D3 from VDR)” value is given as 1650 ng and the “VDR binding affinity relative to that of calcitriol” value is “less than 10^-3”. Besides, in data set [5], the “inhibition of proliferation of PE cells” value is “inhibited proliferation of PE cells”. In addition, the “inhibition of growth of HL-60 cells” value in the data set with HL-60 cells is reported as “more modest effect”.

Consider `C=C1/C(=C\C=C2/CCC[C@]3(C)[C@@H]([C@@H](C)CSc4cccc(C(C)(C)O)c4)CC[C@@H]23)C[C@@H](O)C[C@@H]1CO` [JK 277-1], for which, at calf thymus VDR, the “Amount Bound (amount that results in 50% displacement of [^3 H]-1,25(OH)2 D3 from VDR)” value worked out at 1450 ng and the “VDR binding affinity relative to that of calcitriol” value is on record as “less than 10^-3”. In addition, in data set [5], the “inhibition of proliferation of PE cells” value was “inhibited proliferation of PE cells”. For the same molecule, in the data set on HL-60 cells, the “inhibition of growth of HL-60 cells” value is recorded as “more modest effect”.

For `C=C1/C(=C\C=C2/CCC[C@]3(C)C([C@H](C)CC#CC(C)(C)O)=CC[C@@H]23)C[C@H](O)C[C@H]1CO` [JK III 7-2], in the data set on cell proliferation, the anti-proliferative activity result was “comparable to that of calcitriol”. Moreover, the “VDR binding affinity relative to that of calcitriol” value on calf thymus VDR was ~ 10^-3. The “effect on keratinocyte proliferation” value with keratinocyte is “equal to or greater than calcitriol”.

Take `C=C1/C(=C\C=C2/CCC[C@]3(C)[C@@H]([C@@H](C)OCCCC(O)(CC)CC)CC[C@@H]23)C[C@H](O)C[C@H]1CCF` [RHH 045 B, 1α- and 1β-(2-Fluoroethyl)-25-hydroxyvitamin D3 Homologs]: the anti-proliferative activity entry in the data set with cell proliferation is “comparable to that of calcitriol”. The “VDR binding affinity relative to that of calcitriol” value on calf thymus VDR is on record as ~ 10^-3. The “effect on keratinocyte proliferation” value in the data set on keratinocyte is recorded as “far more effective in inhibiting cell proliferation”.

Take `C=C1/C(=C\C=C2/CCC[C@]3(C)[C@@H]([C@H](C)/C=C/C=C/C(O)(CC)CC)CC[C@@H]23)C[C@@H](O)C[C@@H]1O` [EB1089]: the “Relative Potency, Inhibition of Proliferation” value in data set [3] is 68. In data set [4], the “Relative Potency, Induction of Differentiation” value was 67. Moreover, in the data set on Lewis rats, the “Relative Potency, Calcemic Effects” value is given as 0.4.

Regarding `C=C1/C(=C\C=C2/CCC[C@]3(C)[C@@H]([C@@H](C)CSc4cccc(C(C)(C)O)c4)CC[C@@H]23)C[C@H](O)C[C@H]1CO` [JK 277-2], at calf thymus VDR, the “Amount Bound (amount that results in 50% displacement of [^3 H]-1,25(OH)2 D3 from VDR)” value amounted to 40 ng, the “times less strongly bound to VDR than 1,25(OH)2 D3” value is recorded as around 3750 times and the “VDR binding affinity relative to that of calcitriol” value is on record as “less than 10^-3”. In addition, the “inhibition of proliferation of PE cells” value in data set [5] is recorded as “inhibited proliferation of PE cells; also recorded: at much lower concentrations than their corresponding 1α,3β-stereoisomers”. In addition, the “inhibition of growth of HL-60 cells” value with HL-60 cells is listed as “even more effective than YB in inhibiting growth”.

Take `C=C1/C(=C\C=C2/CCC[C@]3(C)[C@@H]([C@@H](C)COCCCC(C)(C)O)CC[C@@H]23)C[C@H](O)C[C@H]1CO` [JK 276-2]: at calf thymus VDR, the “Amount Bound (amount that results in 50% displacement of [^3 H]-1,25(OH)2 D3 from VDR)” value is given as 22.5 ng, the “times less strongly bound to VDR than 1,25(OH)2 D3” value was “about 1500 times” and the “VDR binding affinity relative to that of calcitriol” value is “less than 10^-3”. In addition, in data set [5], the “inhibition of proliferation of PE cells” value is on record as “inhibited proliferation of PE cells; also recorded: at much lower concentrations than their corresponding 1α,3β-stereoisomers”. Also, the “inhibition of growth of HL-60 cells” value with HL-60 cells was “even more effective than YB in inhibiting growth”.

Regarding `C=C1/C(=C\C=C2/CCC[C@]3(C)[C@@H]([C@@H](C)CSc4cccc(C(C)(C)O)c4)CC[C@@H]23)C[C@@H](O)C[C@@H]1O` [GS 1500], in [6], the serum half-life entry is reported as “very short serum half-life”.

On to `C=C1/C(=C\C=C2/CCC[C@]3(C)C([C@H](C)CC#CC(C)(C)O)=CC[C@@H]23)C[C@@H](O)C[C@@H]1CO` [JK III 7-1], for which the “effect on keratinocyte proliferation” value in the data set with keratinocyte is “appears ineffective in reducing cell proliferation”.

Consider `COC(=O)C1=C(C)NC(C)=C([N+](=O)[O-])C1c1ccccc1C(F)(F)F` (stereo not shown) [Bay K, reference compound], for which the “Average peak shift compared to control” value in the data set with calcium channels was 28.3 ± 5.6 mV and 29.0 ± 1.4 mV and 26.3 ± 4.5 mV and 27.9 ± 5.3 mV.

For `C=C1/C(=C\C=C2/CCC[C@]3(C)[C@@H]([C@H](C)/C=C/C=C/C(O)(CC)CC)CC[C@@H]23)C[C@H](O)C[C@H]1CO` [MCW 068-Y-EE], in the data set on cell proliferation, the anti-proliferative activity result is reported as “comparable to that of calcitriol”. Moreover, on calf thymus VDR, the “VDR binding affinity relative to that of calcitriol” value was ~ 10^-3. The “effect on keratinocyte proliferation” value with keratinocyte is given as “much greater anti proliferative activity than MCW 068-Y-ED”.

As to `C=C1/C(=C\C=C2/CCC[C@]3(C)[C@@H]([C@H](C)CCCC(C)(C)O)CC[C@@H]23)C[C@H](O)C[C@H]1CO` [(+)-3, 1β-hydroxymethyl-3β-norhydroxy-3α, 25-dihydroxyvitamin D3], in the data set on cell proliferation, the anti-proliferative activity result is recorded as “did not change the anti- proliferative or cell growth inhibitory activity”. The “binding to the 1,25(OH)2-vitamin D3 receptor (VDR), % of calcitriol's binding” value on calf thymus VDR was at most 2%. For the same molecule, the ease of crystallization result in data set [2] is “very difficult to crystallize”.
